Assay results reported in paper PMC6478789, “A chemical toolbox for the study of bromodomains and epigenetic signaling” (Nature Communications, 2019).
Values belong to the compound of their own block, whether it stands above or below them.

Tests used:
ATAD2B = biological target: T1, ATAD2B (Homo sapiens, UniProt Q9ULI0); assay: BROMOscan ligand-binding assay
T1 sequence (Q9ULI0 951-1066 limits assumed): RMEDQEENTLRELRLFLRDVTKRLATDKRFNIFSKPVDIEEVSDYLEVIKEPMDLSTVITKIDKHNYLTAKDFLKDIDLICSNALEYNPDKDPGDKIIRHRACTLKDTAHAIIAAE
Source text: (§2) BROMOscan is a binding assay based on the well-known KINOMEscan technology. This assay measures the binding of a DNA-tagged bromodomain to an immobilized BRD ligand. If an inhibitor is present, it will compete with the bromodomain binding to the immobilized ligand, resulting in reduction of a quantitative PCR (qPCR) signal in a dose-dependent manner.

CREBBP = CREBBP (Homo sapiens, UniProt Q92793); assay: BROMOscan ligand-binding assay
Chain of CREBBP (Q92793 1085-1192 limits assumed): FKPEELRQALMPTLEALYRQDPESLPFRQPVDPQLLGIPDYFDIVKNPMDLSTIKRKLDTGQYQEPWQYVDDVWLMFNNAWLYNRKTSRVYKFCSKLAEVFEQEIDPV
Source text: as §2

BAZ1B = biological target: T2, BAZ1B (Homo sapiens, UniProt Q9UIG0); assay: BROMOscan ligand-binding assay
T2 sequence (Q9UIG0 1339-1443 limits assumed): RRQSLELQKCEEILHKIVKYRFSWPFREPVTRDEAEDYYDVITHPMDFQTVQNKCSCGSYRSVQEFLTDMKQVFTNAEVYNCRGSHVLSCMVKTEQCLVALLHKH
Source text: as §2

BRPF3 = biological target: T3, BRPF3 (Homo sapiens, UniProt Q9ULD4); assay: BROMOscan ligand-binding assay
T3 sequence (Q9ULD4 589-693 limits assumed): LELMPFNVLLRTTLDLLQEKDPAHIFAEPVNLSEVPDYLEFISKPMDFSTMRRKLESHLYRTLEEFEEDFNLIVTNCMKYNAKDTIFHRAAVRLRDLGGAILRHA
Source text: as §2

SMARCA2(iso.A) = SMARCA2(iso.A) (Homo sapiens, UniProt P51531); assay: BROMOscan ligand-binding assay
Chain of SMARCA2(iso.A) (P51531 1378-1506 limits assumed): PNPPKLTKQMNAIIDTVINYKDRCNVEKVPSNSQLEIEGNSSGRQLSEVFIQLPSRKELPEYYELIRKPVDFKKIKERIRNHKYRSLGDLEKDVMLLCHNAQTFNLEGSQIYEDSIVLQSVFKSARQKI
Source text: as §2

AAK1 = biological target: T4, AAK1 (Homo sapiens, UniProt Q2M2I8); assay: Temperature shift assay (protein kinases); type: binding; conditions: 10 μM probe; average of three measurements
T4 construct: Recombinant protein domains (bromodomain or kinases) at a concentration of 2 μM
T4 sequence (Q2M2I8 46-315 limits assumed, species assumed): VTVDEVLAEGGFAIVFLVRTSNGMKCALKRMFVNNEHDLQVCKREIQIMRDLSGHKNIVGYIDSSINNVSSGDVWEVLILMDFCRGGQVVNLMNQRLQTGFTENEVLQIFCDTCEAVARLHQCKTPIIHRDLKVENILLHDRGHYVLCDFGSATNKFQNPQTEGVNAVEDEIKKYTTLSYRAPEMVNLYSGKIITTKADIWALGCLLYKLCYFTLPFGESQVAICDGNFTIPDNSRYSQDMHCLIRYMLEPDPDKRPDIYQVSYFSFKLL
Method: (§1) Temperature shift assays have been described by Fedorov et al.[46]. Recombinant protein domains (bromodomain or kinases) at a concentration of 2 μM in 10 mM HEPES, pH 7.5, and 500 mM NaCl were mixed with 10 μM of chemical probes. Temperature-dependent protein unfolding profiles were measured using a Real-Time PCR Mx3005p machine (Stratagene).

AURKB = biological target: T5, AURKB (Homo sapiens, UniProt Q96GD4); assay: Temperature shift assay (protein kinases); type: binding; conditions: 10 μM probe; average of three measurements
T5 construct: Recombinant protein domains (bromodomain or kinases) at a concentration of 2 μM
T5 sequence (Q96GD4 77-327 limits assumed, species assumed): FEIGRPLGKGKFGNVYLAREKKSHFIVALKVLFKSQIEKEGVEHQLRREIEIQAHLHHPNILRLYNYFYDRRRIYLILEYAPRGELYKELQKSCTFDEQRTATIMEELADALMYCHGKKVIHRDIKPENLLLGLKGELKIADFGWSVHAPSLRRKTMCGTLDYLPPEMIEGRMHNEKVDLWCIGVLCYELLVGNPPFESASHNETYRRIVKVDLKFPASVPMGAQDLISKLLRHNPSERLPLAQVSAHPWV
Method: as §1

BMX = biological target: T6, BMX (Homo sapiens, UniProt P51813); assay: Temperature shift assay (protein kinases); type: binding; conditions: 10 μM probe; average of three measurements
T6 construct: Recombinant protein domains (bromodomain or kinases) at a concentration of 2 μM
T6 sequence (P51813 417-675 limits assumed, species assumed): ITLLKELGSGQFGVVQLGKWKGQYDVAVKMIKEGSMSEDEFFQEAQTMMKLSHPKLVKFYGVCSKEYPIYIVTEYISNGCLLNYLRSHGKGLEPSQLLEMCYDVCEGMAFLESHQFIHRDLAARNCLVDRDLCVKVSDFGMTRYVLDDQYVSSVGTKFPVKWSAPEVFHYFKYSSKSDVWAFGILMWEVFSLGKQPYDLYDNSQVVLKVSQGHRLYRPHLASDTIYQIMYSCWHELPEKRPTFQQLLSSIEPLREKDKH
Method: as §1

CAMKK2 = biological target: T7, CAMKK2 (Homo sapiens, UniProt Q96RR4); assay: Temperature shift assay (protein kinases); type: binding; conditions: 10 μM probe; average of three measurements
T7 construct: Recombinant protein domains (bromodomain or kinases) at a concentration of 2 μM
T7 sequence (Q96RR4 165-446 limits assumed, species assumed): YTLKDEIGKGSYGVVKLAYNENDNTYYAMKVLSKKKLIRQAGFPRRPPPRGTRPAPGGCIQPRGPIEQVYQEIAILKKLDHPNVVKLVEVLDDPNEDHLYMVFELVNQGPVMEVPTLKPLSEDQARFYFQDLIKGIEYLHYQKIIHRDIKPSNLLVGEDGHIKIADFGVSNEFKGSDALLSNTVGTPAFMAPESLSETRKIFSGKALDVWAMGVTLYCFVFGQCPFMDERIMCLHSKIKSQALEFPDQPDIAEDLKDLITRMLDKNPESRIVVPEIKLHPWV
Method: as §1

CK2A1 = biological target: T8, CK2A1 (Homo sapiens, UniProt P68400); assay: Temperature shift assay (protein kinases); type: binding; conditions: 10 μM probe; average of three measurements
T8 construct: Recombinant protein domains (bromodomain or kinases) at a concentration of 2 μM
T8 sequence (P68400 39-324 limits assumed): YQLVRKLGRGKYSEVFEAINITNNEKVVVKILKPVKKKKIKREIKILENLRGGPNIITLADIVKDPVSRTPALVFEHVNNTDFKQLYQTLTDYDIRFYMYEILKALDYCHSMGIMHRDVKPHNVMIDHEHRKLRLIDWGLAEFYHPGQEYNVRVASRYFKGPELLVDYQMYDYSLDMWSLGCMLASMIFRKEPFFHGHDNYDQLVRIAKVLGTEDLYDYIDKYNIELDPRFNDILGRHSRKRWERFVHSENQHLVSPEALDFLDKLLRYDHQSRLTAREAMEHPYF
Method: as §1

CSNK1D = biological target: T9, CSNK1D (Homo sapiens, UniProt P48730); assay: Temperature shift assay (protein kinases); type: binding; conditions: 10 μM probe; average of three measurements
T9 construct: Recombinant protein domains (bromodomain or kinases) at a concentration of 2 μM
T9 sequence (P48730 9-277 limits assumed): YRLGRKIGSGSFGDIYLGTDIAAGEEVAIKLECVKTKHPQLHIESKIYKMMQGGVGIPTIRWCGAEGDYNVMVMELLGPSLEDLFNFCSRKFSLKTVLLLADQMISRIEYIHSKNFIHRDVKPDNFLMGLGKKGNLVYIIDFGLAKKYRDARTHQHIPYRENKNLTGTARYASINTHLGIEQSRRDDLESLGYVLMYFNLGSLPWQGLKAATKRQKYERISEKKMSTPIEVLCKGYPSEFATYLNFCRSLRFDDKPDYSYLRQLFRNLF
Method: as §1

DAPK3 = biological target: T10, DAPK3 (Homo sapiens, UniProt O43293); assay: Temperature shift assay (protein kinases); type: binding; conditions: 10 μM probe; average of three measurements
T10 construct: Recombinant protein domains (bromodomain or kinases) at a concentration of 2 μM
T10 sequence (O43293 13-275 limits assumed, species assumed): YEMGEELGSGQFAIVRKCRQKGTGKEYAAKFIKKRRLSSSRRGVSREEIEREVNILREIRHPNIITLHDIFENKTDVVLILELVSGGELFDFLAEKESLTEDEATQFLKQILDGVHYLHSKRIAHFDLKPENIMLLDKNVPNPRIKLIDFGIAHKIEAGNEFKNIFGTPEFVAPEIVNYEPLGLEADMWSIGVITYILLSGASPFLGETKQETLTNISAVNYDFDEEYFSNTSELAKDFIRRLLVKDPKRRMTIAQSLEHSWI
Method: as §1

EPHA2 = biological target: T11, EPHA2 (Homo sapiens, UniProt P29317); assay: Temperature shift assay (protein kinases); type: binding; conditions: 10 μM probe; average of three measurements
T11 construct: Recombinant protein domains (bromodomain or kinases) at a concentration of 2 μM
T11 sequence (P29317 613-875 limits assumed): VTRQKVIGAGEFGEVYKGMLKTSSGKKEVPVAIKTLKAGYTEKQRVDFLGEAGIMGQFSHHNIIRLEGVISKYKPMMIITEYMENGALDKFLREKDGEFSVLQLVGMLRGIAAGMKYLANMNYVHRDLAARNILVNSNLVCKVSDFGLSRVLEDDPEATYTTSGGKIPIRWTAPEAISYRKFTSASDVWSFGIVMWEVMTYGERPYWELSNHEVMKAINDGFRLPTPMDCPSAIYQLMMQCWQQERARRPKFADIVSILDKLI
Method: as §1

GPRK5 = biological target: T12, GPRK5 (Homo sapiens, UniProt P34947); assay: Temperature shift assay (protein kinases); type: binding; conditions: 10 μM probe; average of three measurements
T12 construct: Recombinant protein domains (bromodomain or kinases) at a concentration of 2 μM
T12 sequence (P34947 186-448 limits assumed, species assumed): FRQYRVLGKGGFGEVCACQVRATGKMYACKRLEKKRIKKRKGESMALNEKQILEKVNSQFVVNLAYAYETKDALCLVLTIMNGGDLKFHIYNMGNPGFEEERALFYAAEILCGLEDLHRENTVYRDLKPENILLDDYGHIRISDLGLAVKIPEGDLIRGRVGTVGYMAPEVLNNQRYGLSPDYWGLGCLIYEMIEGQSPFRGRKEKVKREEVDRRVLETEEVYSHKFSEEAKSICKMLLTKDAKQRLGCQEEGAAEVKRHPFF
Method: as §1

GSG2 = biological target: T13, GSG2 (Homo sapiens, UniProt Q8TF76); assay: Temperature shift assay (protein kinases); type: binding; conditions: 10 μM probe; average of three measurements
T13 construct: Recombinant protein domains (bromodomain or kinases) at a concentration of 2 μM
T13 sequence (Q8TF76 484-798 limits assumed): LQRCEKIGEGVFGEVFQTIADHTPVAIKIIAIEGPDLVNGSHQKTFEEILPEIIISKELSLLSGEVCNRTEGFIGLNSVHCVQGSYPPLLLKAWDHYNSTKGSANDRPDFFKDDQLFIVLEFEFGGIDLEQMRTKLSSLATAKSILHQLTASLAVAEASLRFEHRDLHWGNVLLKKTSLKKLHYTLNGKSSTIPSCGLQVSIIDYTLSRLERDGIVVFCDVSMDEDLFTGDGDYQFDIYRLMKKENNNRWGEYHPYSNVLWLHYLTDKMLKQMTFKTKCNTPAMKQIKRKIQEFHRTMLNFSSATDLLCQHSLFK
Method: as §1

MAPK1 = biological target: T14, MAPK1 (Homo sapiens, UniProt P28482); assay: Temperature shift assay (protein kinases); type: binding; conditions: 10 μM probe; average of three measurements
T14 construct: Recombinant protein domains (bromodomain or kinases) at a concentration of 2 μM
T14 sequence (P28482 25-313 limits assumed, species assumed): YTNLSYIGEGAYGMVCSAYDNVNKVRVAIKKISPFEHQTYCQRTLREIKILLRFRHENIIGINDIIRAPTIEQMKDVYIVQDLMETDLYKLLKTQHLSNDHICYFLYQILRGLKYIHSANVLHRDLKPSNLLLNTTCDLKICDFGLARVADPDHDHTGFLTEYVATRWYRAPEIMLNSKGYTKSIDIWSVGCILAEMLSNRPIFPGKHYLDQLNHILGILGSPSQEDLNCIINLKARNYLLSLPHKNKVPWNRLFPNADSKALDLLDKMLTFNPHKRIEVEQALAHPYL
Method: as §1

MAPK8 = biological target: T15, MAPK8 (Homo sapiens, UniProt P45983); assay: Temperature shift assay (protein kinases); type: binding; conditions: 10 μM probe; average of three measurements
T15 construct: Recombinant protein domains (bromodomain or kinases) at a concentration of 2 μM
T15 sequence (P45983 26-321 limits assumed, species assumed): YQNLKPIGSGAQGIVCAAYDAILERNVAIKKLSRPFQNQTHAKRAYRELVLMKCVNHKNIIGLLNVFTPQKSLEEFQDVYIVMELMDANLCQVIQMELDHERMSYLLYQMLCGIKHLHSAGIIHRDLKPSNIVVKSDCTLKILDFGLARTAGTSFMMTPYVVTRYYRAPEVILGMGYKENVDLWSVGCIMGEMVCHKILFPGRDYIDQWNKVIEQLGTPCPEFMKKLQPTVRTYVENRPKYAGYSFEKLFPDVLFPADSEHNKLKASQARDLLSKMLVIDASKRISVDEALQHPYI
Method: as §1

PAK4 = biological target: T16, PAK4 (Homo sapiens, UniProt O96013); assay: Temperature shift assay (protein kinases); type: binding; conditions: 10 μM probe; average of three measurements
T16 construct: Recombinant protein domains (bromodomain or kinases) at a concentration of 2 μM
T16 sequence (O96013 321-572 limits assumed, species assumed): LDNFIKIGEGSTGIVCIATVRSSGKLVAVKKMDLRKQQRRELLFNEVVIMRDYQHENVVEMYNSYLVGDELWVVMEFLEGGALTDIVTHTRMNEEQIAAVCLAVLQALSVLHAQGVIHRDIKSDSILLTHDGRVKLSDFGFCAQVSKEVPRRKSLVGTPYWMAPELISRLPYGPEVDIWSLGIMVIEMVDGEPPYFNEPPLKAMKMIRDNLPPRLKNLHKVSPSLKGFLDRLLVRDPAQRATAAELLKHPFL
Method: as §1

PIM1 = biological target: T17, PIM1 (Homo sapiens, UniProt P11309); assay: Temperature shift assay (protein kinases); type: binding; conditions: 10 μM probe; average of three measurements
T17 construct: Recombinant protein domains (bromodomain or kinases) at a concentration of 2 μM
T17 sequence (P11309 38-290 limits assumed, species assumed): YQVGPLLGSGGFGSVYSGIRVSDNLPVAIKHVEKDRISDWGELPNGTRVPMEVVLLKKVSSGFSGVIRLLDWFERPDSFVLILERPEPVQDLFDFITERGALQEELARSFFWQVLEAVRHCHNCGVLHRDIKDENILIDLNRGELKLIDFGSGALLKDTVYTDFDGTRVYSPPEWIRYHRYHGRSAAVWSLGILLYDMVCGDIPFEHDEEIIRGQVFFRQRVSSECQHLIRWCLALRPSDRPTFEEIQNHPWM
Method: as §1

RPS6KA1 = assay: Temperature shift assay (protein kinases); type: binding; conditions: 10 μM probe; average of three measurements
Method: as §1

STK10 = biological target: T18, STK10 (Homo sapiens, UniProt O94804); assay: Temperature shift assay (protein kinases); type: binding; conditions: 10 μM probe; average of three measurements
T18 construct: Recombinant protein domains (bromodomain or kinases) at a concentration of 2 μM
T18 sequence (O94804 36-294 limits assumed, species assumed): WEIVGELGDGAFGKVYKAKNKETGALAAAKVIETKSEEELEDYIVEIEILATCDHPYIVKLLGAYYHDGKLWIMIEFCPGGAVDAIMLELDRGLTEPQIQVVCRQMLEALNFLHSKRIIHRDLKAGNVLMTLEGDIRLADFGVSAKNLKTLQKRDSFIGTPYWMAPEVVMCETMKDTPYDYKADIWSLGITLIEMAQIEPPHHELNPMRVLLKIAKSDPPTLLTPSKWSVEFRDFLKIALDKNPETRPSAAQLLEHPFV
Method: as §1

[1] = KD (BROMOscan), sheet prints no unit (nM)

SMILES: O=C(O)c1ccccc1O [Salicylic Acid]
Kd (ATAD2B; KD, ATAD2B): > 1.4e+07 nM | Kd (BAZ1B; KD, BAZ1B): > 1.4e+07 nM | Kd (BRPF3; KD, BRPF3): > 1.4e+07 nM | Kd (CREBBP; KD, CREBBP): > 14000 µM | Kd (SMARCA2(iso.A); KD, SMARCA2(iso.A)): 950000 nM

SMILES: Cc1cc(=O)n(C)c2cc(N3C(=O)CC[C@H](NS(=O)(=O)CC(C)C)[C@H]3c3ccc(Cl)cc3)ccc12 [LP-99]
Kd (ATAD2B; ATAD2B): > 50000 nM | Kd (BRPF3; BROMOscan, BRPF3): > 50000 nM | Kd (CREBBP; BROMOscan, CREBBP): > 50 µM

SMILES: COc1ccc(CCc2nc3cc(-c4c(C)noc4C)ccc3n2C[C@H](C)N2CCOCC2)cc1Cl [SGC-CBP30]
Kd (ATAD2B; [1]): > 30000 nM | Kd (ATAD2B; KD, BROMOscan, ATAD2B): > 100000 nM | Kd (BAZ1B; [1]): > 30000 nM | Kd (BAZ1B; KD, BROMOscan, BAZ1B): > 100000 nM | Kd (BRPF3; [1]): > 30000 nM | Kd (BRPF3; KD, BROMOscan, BRPF3): > 100000 nM | Kd (SMARCA2(iso.A); [1]): > 30000 nM | Kd (SMARCA2(iso.A); KD, BROMOscan, SMARCA2(iso.A)): > 100000 nM

Further lines, with some results ahead:

Kd (ATAD2B; ATAD2B): > 50000 nM | Kd (CREBBP; CREBBP): 13 µM
SMILES: COc1cc(C#N)ccc1S(=O)(=O)Nc1ccc2c(c1)cc(C)c(=O)n2C [NI 57]

Kd (ATAD2B; [1]): > 30000 nM | Kd (ATAD2B; KD, BROMOscan Gene Symbol ATAD2B): > 100000 nM | Kd (BAZ1B; [1]): > 30000 nM | Kd (BAZ1B; KD, BROMOscan Gene Symbol BAZ1B): > 100000 nM | Kd (BRPF3; KD, BROMOscan Gene Symbol BRPF3): 15000 nM | Kd (CREBBP; KD, BROMOscan Gene Symbol CREBBP): 21 µM | Kd (SMARCA2(iso.A); [1]): > 30000 nM | Kd (SMARCA2(iso.A); KD, BROMOscan Gene Symbol SMARCA2(iso.A)): > 100000 nM
SMILES: CCCOc1ccn2c(C(C)=O)cc(-c3ccccc3S(C)(=O)=O)c2c1 [GSK2801]

Temperature shift (AAK1): -0.4 Kelvin | Temperature shift (AURKB): 0.2 Kelvin | Temperature shift (BMX): 0.3 Kelvin | Temperature shift (CAMKK2): -0.4 Kelvin | Temperature shift (CK2A1): -1.4 Kelvin | Temperature shift (CSNK1D): 1.2 Kelvin | Temperature shift (DAPK3): -0.2 Kelvin | Temperature shift (EPHA2): 2.0 Kelvin | Temperature shift (GPRK5): -0.3 Kelvin | Temperature shift (GSG2): 0.1 Kelvin | Temperature shift (MAPK1): 0.0 Kelvin | Temperature shift (MAPK8): -0.4 Kelvin | Temperature shift (PAK4): -0.1 Kelvin | Temperature shift (PIM1): -0.2 Kelvin | Temperature shift (STK10): -0.2 Kelvin
SMILES: Cc1cc2c(cc1N1C(=O)c3cccc4c(CCCO)ccc(c34)C1=O)n(C)c(=O)n2C [BAY-299]
Temperature shift (RPS6KA1): 0.1 Kelvin
